Patent publication US20250313548A1 (Actio Biosciences, Inc., priority 2023, published 2025)

The compounds below were run against human, KCNT1 (Homo sapiens (Human), UniProt Q5JUK3) (assay: FLIPR Tl/K Flux Assay). Details: HEK293 cells stably expressing human KCNT1; Tl+ flux stimulated with EC80 of agonist Loxapine.
Chain of human, KCNT1 (Q5JUK3 whole entry): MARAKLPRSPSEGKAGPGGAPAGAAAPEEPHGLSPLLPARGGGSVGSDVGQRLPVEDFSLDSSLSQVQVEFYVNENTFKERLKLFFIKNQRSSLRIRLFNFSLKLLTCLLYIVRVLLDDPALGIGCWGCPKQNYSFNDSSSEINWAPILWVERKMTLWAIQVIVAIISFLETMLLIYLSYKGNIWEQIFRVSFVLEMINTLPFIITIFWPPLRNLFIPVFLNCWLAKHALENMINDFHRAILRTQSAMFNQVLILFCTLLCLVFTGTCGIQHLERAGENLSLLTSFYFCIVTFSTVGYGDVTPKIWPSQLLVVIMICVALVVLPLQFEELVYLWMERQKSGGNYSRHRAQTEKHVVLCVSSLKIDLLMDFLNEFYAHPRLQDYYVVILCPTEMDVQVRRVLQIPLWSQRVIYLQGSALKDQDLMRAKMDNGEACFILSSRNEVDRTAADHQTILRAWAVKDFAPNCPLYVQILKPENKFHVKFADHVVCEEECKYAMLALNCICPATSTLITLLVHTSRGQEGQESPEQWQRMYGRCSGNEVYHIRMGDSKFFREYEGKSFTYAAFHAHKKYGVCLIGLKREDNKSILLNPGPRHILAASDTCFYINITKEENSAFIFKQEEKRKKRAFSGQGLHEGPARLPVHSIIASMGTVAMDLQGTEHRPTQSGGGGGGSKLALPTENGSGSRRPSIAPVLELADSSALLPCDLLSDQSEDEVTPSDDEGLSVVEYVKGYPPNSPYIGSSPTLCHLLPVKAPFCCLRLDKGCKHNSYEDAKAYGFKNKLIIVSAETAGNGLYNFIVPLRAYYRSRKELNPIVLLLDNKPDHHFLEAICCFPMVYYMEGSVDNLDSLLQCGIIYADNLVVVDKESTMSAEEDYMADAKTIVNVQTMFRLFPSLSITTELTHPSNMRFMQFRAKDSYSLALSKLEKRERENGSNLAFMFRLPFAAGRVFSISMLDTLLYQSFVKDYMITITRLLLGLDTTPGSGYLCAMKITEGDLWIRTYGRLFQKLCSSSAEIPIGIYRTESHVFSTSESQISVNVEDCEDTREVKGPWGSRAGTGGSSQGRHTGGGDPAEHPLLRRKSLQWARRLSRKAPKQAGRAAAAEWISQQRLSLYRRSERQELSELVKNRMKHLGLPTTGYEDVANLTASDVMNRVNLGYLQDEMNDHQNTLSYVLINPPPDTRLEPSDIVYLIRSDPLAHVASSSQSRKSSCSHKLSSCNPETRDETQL
Assay type: cell-based
In short: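 Inhibition values come from a Hill-equation fit of % inhibition versus log concentration, using normalized fluorescence (Fmax/Fmin) over a 160 s read. The read followed stimulation with Tl+ plus EC80 agonist loxapine after 30 min compound pre-incubation at 25 °C. Cells were KCNT1-expressing HEK293, dye-loaded 1 h in pH 7.4 HEPES/HBSS with 5 mM probenecid.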
For `O=C(N[C@H]1CCCn2nc(-c3ccnc(C(F)(F)F)c3)cc21)c1cnc(C(F)(F)F)cn1` [Compound I-582a, (S)-5-(Trifluoromethyl)-N-(2-(2-(trifluoromethyl)pyridin-4-yl)-4,5,6,7-tetrahydropyrazolo[1,5-a]pyridin-4-yl)pyrazine-2-carboxamide], the IC50 was < 250 nM. For `O=C(N[C@H]1CCn2nc(-c3ccnc(C(F)(F)F)c3)cc21)C12CC(CC(F)(F)F)(C1)C2` [Compound I-583a, (S)-3-(2,2,2-Trifluoroethyl)-N-(2-(2-(trifluoromethyl)pyridin-4-yl)-5,6-dihydro-4H-pyrrolo[1,2-b]pyrazol-4-yl)bicyclo[1.1.1]pentane-1-carboxamide], the IC50 was < 250 nM. `O=C(N[C@H]1CCn2nc(-c3ccnc(C4CC4)c3)cc21)C12CC(CC(F)(F)F)(C1)C2` [Compound I-584a, (S)-N-(2-(2-Cyclopropylpyridin-4-yl)-5,6-dihydro-4H-pyrrolo[1,2-b]pyrazol-4-yl)-3-(2,2,2-trifluoroethyl)bicyclo[1.1.1]pentane-1-carboxamide] was tested, and the IC50 was < 250 nM. In the case of `O=C(N[C@H]1CCn2nc(-c3ccnc(C(F)(F)F)c3)cc21)[C@@H]1C[C@@H]1C(F)(F)F` [I-487^, (1R,2S)-2-(trifluoromethyl)-N—((S)-2-(2-(trifluoromethyl)pyridin-4-yl)-5,6-dihydro-4H-pyrrolo[1,2-b]pyrazol-4-yl)cyclopropane-1-carboxamide], the IC50 is reported as < 250 nM. With `O=C(N[C@H]1CCn2nc(-c3ccnc(C(F)(F)F)c3)cc21)[C@@H]1C[C@H]1C(F)(F)F` [I-488^, (1R,2R)-2-(trifluoromethyl)-N—((S)-2-(2-(trifluoromethyl)pyridin-4-yl)-5,6-dihydro-4H-pyrrolo[1,2-b]pyrazol-4-yl)cyclopropane-1-carboxamide] the IC50 was < 250 nM. “(S)-3-Chloro-5-methyl-N-(2-(2-(trifluoromethyl)pyridin-4-yl)-2,4,5,6-tetrahydrocyclopenta[c]pyrazol-4-yl)benzamide [Compound I-129a]” was tested, and the IC50 was < 250 nM. “(S)-6-(Trifluoromethyl)-N-(2-(2-(trifluoromethyl)pyridin-4-yl)-5,6-dihydro-4H-pyrrolo[1,2-b]pyrazol-4-yl)pyrazine-2-carboxamide [Compound I-572a]” was tested, and the IC50 was < 250 nM. “(S)—N-(2-(2-Cyclopropyl-5-fluoropyridin-4-yl)-5,6-dihydro-4H-pyrrolo[1,2-b]pyrazol-4-yl)-1-methyl-3-(trifluoromethyl)-1H-pyrazole-5-carboxamide [Compound I-154a]” was tested, and the IC50 was < 250 nM. With “(rac)-N-(2-(2-Cyclopropylpyridin-4-yl)-4,5,6,7-tetrahydropyrazolo[1,5-a]pyridin-4-yl)-6-(trifluoromethyl)nicotinamide [Compound I-65]” the IC50 was < 250 nM.
